# According to article PMC6407913, “DREADD Agonist 21 Is an Effective Agonist for Muscarinic-Based DREADDs in Vitro and in Vivo” (ACS Pharmacology & Translational Science, 2018):
# Substitutions are numbered along the chain they refer to. “And” between values parts separate entries of the source, which are not always exact repeats. Equal values may be shown once. Read-outs that look alike come from different tables or passages of the source.
# Legend:
# hM4 = molecular target: T1, hM4 (Homo sapiens, UniProt P08173); experiment: whole-cell [3H]NMS competition binding; details: hM4, FlpIn CHO cells, mean (±SEM)
# T1 construct: HA (hemagglutinin); expressed in transfected cells
# T1 sequence (P08173 1-479): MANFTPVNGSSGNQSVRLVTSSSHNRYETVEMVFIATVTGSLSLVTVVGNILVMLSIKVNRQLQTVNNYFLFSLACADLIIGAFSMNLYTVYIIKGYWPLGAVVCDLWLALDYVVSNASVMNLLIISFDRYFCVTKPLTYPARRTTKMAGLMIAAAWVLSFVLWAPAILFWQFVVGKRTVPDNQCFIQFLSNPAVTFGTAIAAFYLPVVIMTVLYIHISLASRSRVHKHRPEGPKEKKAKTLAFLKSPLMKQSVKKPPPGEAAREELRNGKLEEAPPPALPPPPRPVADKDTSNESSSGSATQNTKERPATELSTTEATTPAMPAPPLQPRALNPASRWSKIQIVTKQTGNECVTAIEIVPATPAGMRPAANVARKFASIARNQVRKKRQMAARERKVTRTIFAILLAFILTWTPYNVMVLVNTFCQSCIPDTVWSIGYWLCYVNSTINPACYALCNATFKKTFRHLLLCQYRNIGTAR
# [1] = molecular target: T2, 318 nonolfactory human GPCRs (Homo sapiens, UniProt Q13324); format: cell-based; details: CRHR2; C21 5 µM
# T2 construct: expressed in transfected cells; host or cells: HTLA cells, transient
# 5-HT1D = 5-HT1D (Homo sapiens, UniProt P28221); experiment: NIMH PDSP radioligand binding, membranes
# Procedure: (§1) Radioligand binding assays with membrane preparations to determine binding affinity were carried out as outlined before[540] and by the National Institute of Mental Health’s Psychoactive Drug Screening Program (NIMH PDSP) (https://pdsp.unc.edu/), Contract # HHSN-271–2013–00017-C. The NIMH PDSP is Directed by B.L.R. at the University of North Carolina at Chapel Hill, Chapel Hill, NC, and Project Officer Jamie Driscoll at NIMH, Bethesda, MD.
# 5-HT1E = 5-HT1E (Homo sapiens, UniProt P28566); experiment: NIMH PDSP radioligand binding, membranes
# Procedure: as §1
# 5-HT4 = molecular target: T3, 5-HT4 (Homo sapiens, UniProt Q13639); experiment: NIMH PDSP radioligand binding, membranes
# T3 construct: NIMH PDSP
# Procedure: as §1
# 5-HT7 = molecular target: T4, 5-HT7 (Homo sapiens, UniProt P34969); experiment: NIMH PDSP radioligand binding, membranes
# T4 construct: NIMH PDSP
# Procedure: as §1
# Alpha1A = molecular target: T5, Alpha1A (Homo sapiens, UniProt P35348); experiment: NIMH PDSP radioligand binding, membranes
# T5 construct: NIMH PDSP
# T5 sequence (P35348 1-466): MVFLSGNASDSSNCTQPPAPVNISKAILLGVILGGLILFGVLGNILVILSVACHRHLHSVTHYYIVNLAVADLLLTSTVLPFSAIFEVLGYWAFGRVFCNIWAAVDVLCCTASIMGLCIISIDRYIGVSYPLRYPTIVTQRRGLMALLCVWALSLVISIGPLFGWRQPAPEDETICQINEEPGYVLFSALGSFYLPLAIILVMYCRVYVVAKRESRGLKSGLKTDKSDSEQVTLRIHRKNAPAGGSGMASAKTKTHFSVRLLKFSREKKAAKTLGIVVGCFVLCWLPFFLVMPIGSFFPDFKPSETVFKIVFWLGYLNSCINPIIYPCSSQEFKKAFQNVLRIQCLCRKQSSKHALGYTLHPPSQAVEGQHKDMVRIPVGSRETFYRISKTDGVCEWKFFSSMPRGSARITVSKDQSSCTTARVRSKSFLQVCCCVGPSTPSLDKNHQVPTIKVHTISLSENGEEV
# Procedure: as §1
# Alpha2A = molecular target: T6, Alpha2A (Homo sapiens, UniProt P08913); experiment: NIMH PDSP radioligand binding, membranes
# T6 construct: NIMH PDSP
# Procedure: as §1
# BZP = experiment: NIMH PDSP radioligand binding, membranes
# Procedure: as §1
# H1 = H1 (Homo sapiens, UniProt P35367); experiment: NIMH PDSP radioligand binding, membranes
# Procedure: as §1
# H2 = H2 (Homo sapiens, UniProt P25021); experiment: NIMH PDSP radioligand binding, membranes
# Procedure: as §1
# H4 = H4 (Homo sapiens, UniProt Q9H3N8); experiment: NIMH PDSP radioligand binding, membranes
# Procedure: as §1
# M2 = M2 (Homo sapiens, UniProt P08172); experiment: NIMH PDSP radioligand binding, membranes
# Procedure: as §1
# M3 = M3 (Homo sapiens, UniProt P20309); experiment: NIMH PDSP radioligand binding, membranes
# Procedure: as §1
# MOR = MOR (Homo sapiens, UniProt P35372); experiment: NIMH PDSP radioligand binding, membranes
# Procedure: as §1
# hM4Di = molecular target: T7, hM4Di (Homo sapiens, UniProt P08173, A203G/Y113C); experiment: ERK1/2 phosphorylation (pERK1/2) assay
# T7 sequence (P08173 1-479 Y113C/A203G): T1 sequence (P08173 1-479) with Y113C, A203G
# [2] = read-out: Ki #1-#5 (individual assays)
# [3] = read-out: pKi (mean) (converted)
# T4 sequence (P34969 whole entry, species assumed): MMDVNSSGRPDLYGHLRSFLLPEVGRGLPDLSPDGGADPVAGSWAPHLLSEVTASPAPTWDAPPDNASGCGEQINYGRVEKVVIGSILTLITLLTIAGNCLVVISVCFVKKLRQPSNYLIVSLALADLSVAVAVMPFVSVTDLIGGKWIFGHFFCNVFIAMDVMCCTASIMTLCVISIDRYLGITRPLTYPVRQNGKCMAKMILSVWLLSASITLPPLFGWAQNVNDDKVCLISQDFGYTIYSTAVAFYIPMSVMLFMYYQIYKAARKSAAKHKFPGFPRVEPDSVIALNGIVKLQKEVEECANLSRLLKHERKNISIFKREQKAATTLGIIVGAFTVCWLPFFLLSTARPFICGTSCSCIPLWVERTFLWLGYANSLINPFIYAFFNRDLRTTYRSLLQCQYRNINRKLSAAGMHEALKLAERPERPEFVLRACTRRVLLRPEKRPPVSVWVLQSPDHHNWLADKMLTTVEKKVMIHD
# Chain of H2 (P25021 whole entry): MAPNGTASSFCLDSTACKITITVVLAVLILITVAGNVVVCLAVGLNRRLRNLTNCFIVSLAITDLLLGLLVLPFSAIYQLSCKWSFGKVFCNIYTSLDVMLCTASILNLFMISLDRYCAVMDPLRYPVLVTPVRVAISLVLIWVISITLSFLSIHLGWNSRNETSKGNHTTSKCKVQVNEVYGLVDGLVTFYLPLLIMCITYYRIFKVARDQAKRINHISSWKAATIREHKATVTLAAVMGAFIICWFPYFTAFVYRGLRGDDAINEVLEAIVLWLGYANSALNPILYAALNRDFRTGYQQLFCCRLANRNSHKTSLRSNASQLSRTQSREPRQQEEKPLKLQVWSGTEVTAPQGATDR
# T6 sequence (P08913 whole entry): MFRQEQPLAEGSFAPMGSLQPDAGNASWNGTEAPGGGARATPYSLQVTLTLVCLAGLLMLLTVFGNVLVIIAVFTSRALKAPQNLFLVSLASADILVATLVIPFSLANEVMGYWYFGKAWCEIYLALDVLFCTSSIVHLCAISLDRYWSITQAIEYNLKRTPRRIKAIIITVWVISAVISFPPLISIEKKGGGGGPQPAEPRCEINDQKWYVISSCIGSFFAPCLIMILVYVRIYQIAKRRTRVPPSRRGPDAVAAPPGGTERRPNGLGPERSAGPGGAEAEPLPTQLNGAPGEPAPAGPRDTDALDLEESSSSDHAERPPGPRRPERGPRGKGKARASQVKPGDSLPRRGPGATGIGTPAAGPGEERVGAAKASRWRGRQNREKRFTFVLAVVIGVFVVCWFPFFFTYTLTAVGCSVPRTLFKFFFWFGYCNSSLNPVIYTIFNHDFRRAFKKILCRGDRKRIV
# Chain of M2 (P08172 whole entry): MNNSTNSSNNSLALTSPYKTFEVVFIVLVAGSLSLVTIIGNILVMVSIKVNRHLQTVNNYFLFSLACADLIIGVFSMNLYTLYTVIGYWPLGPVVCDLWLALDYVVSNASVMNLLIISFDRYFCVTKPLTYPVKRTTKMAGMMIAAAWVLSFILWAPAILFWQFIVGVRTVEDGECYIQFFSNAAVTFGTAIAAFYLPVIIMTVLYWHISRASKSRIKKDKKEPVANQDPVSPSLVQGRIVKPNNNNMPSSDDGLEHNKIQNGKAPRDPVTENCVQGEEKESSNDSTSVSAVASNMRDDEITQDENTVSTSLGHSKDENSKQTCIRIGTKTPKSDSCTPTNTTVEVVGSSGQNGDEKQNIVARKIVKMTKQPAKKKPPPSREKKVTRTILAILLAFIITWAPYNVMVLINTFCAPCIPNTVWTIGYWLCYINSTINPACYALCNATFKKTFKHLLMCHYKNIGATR
# Chain of MOR (P35372 whole entry): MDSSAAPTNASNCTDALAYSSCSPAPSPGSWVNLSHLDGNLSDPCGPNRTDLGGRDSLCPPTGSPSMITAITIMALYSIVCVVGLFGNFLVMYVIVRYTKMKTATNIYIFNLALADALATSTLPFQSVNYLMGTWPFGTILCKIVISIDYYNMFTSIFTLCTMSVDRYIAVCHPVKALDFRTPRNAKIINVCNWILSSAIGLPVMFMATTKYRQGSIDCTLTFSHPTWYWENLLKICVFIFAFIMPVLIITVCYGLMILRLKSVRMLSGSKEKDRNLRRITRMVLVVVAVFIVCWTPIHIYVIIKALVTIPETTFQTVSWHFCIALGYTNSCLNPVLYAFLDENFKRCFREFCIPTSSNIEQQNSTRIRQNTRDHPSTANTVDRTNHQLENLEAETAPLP
# Chain of H4 (Q9H3N8 whole entry): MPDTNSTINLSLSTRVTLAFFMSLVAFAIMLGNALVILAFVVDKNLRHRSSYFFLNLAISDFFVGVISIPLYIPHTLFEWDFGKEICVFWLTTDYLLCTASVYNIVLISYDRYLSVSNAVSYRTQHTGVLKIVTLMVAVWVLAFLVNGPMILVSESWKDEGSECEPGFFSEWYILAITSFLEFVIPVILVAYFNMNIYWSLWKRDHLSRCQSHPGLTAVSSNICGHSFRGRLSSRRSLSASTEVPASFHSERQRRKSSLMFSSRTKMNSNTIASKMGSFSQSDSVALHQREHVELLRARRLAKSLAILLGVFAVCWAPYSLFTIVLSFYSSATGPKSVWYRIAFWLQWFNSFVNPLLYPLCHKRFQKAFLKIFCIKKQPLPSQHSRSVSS
# Chain of 5-HT1D (P28221 whole entry, species assumed): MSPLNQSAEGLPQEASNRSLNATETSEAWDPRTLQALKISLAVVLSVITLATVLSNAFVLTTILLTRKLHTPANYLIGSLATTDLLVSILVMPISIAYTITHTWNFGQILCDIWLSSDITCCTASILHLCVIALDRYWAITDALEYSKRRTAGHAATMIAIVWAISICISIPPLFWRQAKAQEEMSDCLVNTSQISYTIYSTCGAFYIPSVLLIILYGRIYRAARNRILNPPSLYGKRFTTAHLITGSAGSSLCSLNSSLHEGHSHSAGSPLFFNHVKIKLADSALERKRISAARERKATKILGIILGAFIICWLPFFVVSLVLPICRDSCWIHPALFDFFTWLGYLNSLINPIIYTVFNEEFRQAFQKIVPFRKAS
# Chain of H1 (P35367 whole entry): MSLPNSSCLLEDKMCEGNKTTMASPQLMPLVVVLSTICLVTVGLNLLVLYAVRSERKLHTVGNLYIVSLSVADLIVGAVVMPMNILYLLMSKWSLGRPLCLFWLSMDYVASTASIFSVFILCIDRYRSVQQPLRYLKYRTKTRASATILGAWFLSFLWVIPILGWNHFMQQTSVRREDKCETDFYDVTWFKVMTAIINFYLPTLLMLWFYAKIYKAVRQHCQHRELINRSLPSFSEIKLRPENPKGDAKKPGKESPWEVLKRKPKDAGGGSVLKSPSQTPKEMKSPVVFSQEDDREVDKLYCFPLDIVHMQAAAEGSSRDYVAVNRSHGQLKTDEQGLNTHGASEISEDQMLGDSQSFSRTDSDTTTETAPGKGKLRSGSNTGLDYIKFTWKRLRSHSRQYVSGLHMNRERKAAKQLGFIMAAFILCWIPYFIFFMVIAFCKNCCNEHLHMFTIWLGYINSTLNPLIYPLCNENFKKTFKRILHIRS
# Chain of M3 (P20309 whole entry): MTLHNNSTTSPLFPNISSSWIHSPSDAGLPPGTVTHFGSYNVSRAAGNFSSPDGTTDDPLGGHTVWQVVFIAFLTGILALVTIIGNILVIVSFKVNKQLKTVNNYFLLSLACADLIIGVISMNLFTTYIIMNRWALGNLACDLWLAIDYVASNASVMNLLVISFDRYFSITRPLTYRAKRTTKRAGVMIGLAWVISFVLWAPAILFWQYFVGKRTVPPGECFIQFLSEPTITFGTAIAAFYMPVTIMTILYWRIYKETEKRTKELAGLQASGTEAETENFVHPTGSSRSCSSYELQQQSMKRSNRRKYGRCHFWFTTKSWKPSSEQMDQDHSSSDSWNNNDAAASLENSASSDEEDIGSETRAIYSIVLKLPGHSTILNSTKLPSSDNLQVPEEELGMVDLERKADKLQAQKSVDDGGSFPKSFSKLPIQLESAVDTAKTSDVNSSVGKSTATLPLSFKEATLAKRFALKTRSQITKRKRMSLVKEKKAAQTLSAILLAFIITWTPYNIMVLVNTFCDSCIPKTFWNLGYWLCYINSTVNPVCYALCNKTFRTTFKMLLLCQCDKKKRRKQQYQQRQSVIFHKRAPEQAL
# Chain of 5-HT1E (P28566 whole entry, species assumed): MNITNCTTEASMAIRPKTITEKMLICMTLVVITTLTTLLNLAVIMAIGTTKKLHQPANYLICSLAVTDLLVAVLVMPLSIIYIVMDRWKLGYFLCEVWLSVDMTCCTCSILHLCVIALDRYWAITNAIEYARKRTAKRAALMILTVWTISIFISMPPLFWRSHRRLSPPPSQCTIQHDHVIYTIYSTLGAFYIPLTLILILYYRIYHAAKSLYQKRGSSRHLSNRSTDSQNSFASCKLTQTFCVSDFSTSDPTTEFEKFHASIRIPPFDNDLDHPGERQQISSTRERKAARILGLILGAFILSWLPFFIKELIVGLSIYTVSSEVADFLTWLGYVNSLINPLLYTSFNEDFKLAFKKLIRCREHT
# T3 sequence (Q13639 whole entry, species assumed): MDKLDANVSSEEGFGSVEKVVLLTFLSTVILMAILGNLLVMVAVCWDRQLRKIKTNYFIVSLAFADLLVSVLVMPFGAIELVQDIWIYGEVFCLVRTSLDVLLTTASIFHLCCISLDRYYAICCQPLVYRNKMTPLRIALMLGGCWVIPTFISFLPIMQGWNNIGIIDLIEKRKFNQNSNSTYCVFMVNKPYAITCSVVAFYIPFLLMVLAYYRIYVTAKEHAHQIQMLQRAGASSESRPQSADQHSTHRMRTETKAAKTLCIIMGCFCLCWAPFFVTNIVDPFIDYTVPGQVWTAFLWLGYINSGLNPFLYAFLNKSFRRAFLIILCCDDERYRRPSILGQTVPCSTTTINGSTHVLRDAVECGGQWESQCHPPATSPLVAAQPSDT
structure (smiles),measurement,setting,value
"c1ccc2c(c1)N=C(N1CCNCC1)c1ccccc1N2 [C21, 11-(1-piperazinyl)-5H-dibenzo[b,e][1,4]diazepine]",Ki,hM4,3630 nM
same,FOLD OVER BASAL,[1],1.3 fold and 1 fold and 0.9 fold
same,Ki,5-HT1D; read-out: Ki,972 nM
same,Ki,5-HT1D; [2],1190 nM and 785 nM and 983 nM
same,Ki,5-HT1E; read-out: Ki,206 nM
same,Ki,5-HT1E; [2],325 nM and 263 nM and 68 nM and 117 nM and 547 nM
same,Ki,5-HT4; read-out: Ki,> 10000 nM
same,Ki,5-HT4; [2],> 10000 nM
same,Ki,5-HT7; read-out: Ki,107 nM
same,Ki,5-HT7; [2],104 nM and 77 nM and 152 nM
same,log Ki (individual assays),Alpha1A,<5
same,Ki,Alpha1A; read-out: Ki,> 10000 nM
same,Ki,Alpha1A; [2],> 10000 nM
same,Ki,Alpha2A; read-out: Ki,1770 nM
same,Ki,Alpha2A; [2],4750 nM and 809 nM and 1440 nM
same,log Ki (individual assays),BZP,5.27 and 5.61 and 5.12 and 5.10 and 5.33
same,pKi (mean),BZP,5.29
same,Ki,BZP; read-out: Ki,5180 nM
same,Ki,BZP; [2],4720 nM and 5310 nM and 2440 nM and 7610 nM and 7980 nM
same,Ki,H1; [2],4.5 nM
same,Ki,H1; read-out: log Ki (individual assays) (converted),3.47 nM and 2.4 nM
same,Ki,H1; [3],3.39 nM
same,Ki,H2; read-out: Ki,289 nM
same,Ki,H2; [2],257 nM and 511 nM and 184 nM
same,Ki,H4; read-out: Ki,> 10000 nM
same,Ki,H4; [2],> 10000 nM
same,Ki,H4; [3],> 10000 nM
same,Ki,M2; read-out: Ki,146 nM
same,Ki,M2; [2],246 nM and 139 nM and 91 nM
same,Ki,M3; read-out: Ki,270 nM
same,Ki,M3; [2],144 nM and 485 nM and 281 nM
same,Ki,MOR; read-out: Ki,3880 nM
same,Ki,MOR; [2],2230 nM and 4820 nM and 5430 nM
same,EC50,hM4Di,17 nM
